Reference: patent publication US7361730B1, “Surface localized colligin/Hsp47 in carcinoma cells” (University of Maryland, priority 1999, dated 2008)

How the values were obtained:
colligin/Hsp47 = test: Cell surface labeling, cross-linking and immunoprecipitation; type: cell-based, human and murine; conditions: 1 mM amiloride; SCC and LL/2 cells
Description: The methods used were previously described for the characterization of TM4SF complexes with integrins (Berditchevski et al., (1996) Molec. Biol. of the Cell 7, 193-207). In essence, cells are labeled with NHS-LC-biotin (Pierce, Rockford, Ill.) according to kit protocol, and lysed in immunoprecipitation buffer [1% Brij 96, 25 mM Hepes, pH 7.4, 150 mM NaCl, 5 mM MgCl2, 2 mM PMSF, 20 μg/ml apotinin, and 10 μg/ml leupeptin]. Immune complexes are collected on protein A beads pre-bound with antibodies, followed by four washes with immunoprecipitation buffer. For more “stringent” conditions, the immunoprecipitation buffer is supplemented with 0.2% SDS. Immune complexes are eluted from protein A beads with Laemmli elution buffer and proteins are separated by SDS-PAGE. Proteins are transferred to nitrocellulose membranes and visualized with HRPO-conjugated ExtrAvidin (Sigma Chemical Co., St. Louis Mo.) using Renaissance Chemiluminescent Reagents (NEN, Cambridge). Reprecipitations are preformed from Brij 96 lysates prepared from surface-biotinylated SCC cells. […]
(§1) For cross-linking, cells are treated with DTSSP, a membrane impermeable cross-linker or DSP. After solubilization in immunoprecipitation buffer supplemented with 0.2% SDS protein complexes are immunoprecipitated as above and analyzed under reducing conditions.

SCC cells and LL/2 cells = test: Tumor cell invasion assay (modified Boyden chamber, Matrigel); type: cell-based, human and murine; conditions: SCC and LL/2 cells in Matrigel chambers, 24 hrs
Description: An in vitro assay is modified after that described previously by Chu et al. (1993) Proc. Natl. Acad. Sci. 90, 4261-4265, utilizing Matrigel®, a reconstituted basement membrane. In essence, a modified Boyden chamber containing an 8 μm-porosity polyvinylpyrolidone-free polycarbonate filter is precoated with Matrigel® (Collaborative Biomedical Products, Becton Dickinson, Bedford, Mass.). The lower well of the chamber is then filled with serum free medium containing 500 μl of 3T6 cell-conditioned medium as a chemoattractant. The upper well is then seeded with 200 μl of cell suspension at 1.0×10^4 cells/chamber plus additives as indicated. The chambers are then incubated at 37° C. for 24 hrs. […] The resulting cells contained in Matrigel®, as well as the cells in the lower chamber, are counted in a Coulter counter. Data are expressed as the percent invasion through the matrix and membrane relative to the migration through the control membrane. The “Invasion Index” is expressed as the ratio of the percent invasion of a test cell over the percent invasion of a control cell.
Overall treatment and group effects are assessed using an analysis of variance (ANOVA), with post-hoc comparisons based on the Newman-Keuls test (p<0.05). The association of mean HSP47 fluorescence labeling with the invasion index is evaluated using the nonparametric Spearman's rank-order correlation coefficient (rho).

[1] = molecular target: T1, colligin/CBP2/Hsp47 on the surface of human carcinoma cells (human, UniProt P50454 19-418); test: cross-linking (DSP) and immunoprecipitation with anti-CD81 mAbs, SCC cells
T1 construct: whole, on cells; Endogenous protein on intact cells or in plasma membrane preparations or Brij 96 lysates of surface-biotinylated cells; The 46K band is called unglycosylated Hsp47; also called colligin/Hsp47; cell surface colligin/Hsp47
T1 sequence (looked up): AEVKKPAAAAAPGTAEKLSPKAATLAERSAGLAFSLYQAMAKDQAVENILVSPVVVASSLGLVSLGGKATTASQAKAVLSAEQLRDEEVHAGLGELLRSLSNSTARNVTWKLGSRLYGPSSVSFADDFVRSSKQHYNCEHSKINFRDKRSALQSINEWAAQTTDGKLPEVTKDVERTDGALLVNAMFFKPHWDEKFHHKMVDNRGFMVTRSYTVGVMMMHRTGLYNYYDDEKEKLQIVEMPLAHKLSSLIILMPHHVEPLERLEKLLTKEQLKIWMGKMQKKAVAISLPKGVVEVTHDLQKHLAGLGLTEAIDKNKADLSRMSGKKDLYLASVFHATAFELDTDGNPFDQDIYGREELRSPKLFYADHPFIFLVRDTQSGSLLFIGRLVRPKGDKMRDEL
Description: (§2) Reprecipitations are preformed from Brij 96 lysates prepared from surface-biotinylated SCC cells. After five washes with the immunoprecipitation buffer, the protein complexes are dissociated with 0.5% SDS added to the immunoprecipitation buffer. The eluates are subsequently diluted 1:1 with immunoprecipitation buffer and re-precipitated with the appropriate antibodies directly coupled to Sepharose beads. The samples are then processed as described above.
as §1
(§3) Membrane surface proteins are consistently co-precipitated with anti-colligin/Hsp47 antibodies. In cross-linking studies, SCC and LL/2 cells are first pre-treated with a cleavable cross-linker, DSP, then surface labeled with biotin or [^125]-I, and subsequent immunoprecipitation is carried out under stringent conditions to disrupt the noncovalent association between Hsp and tetraspanin protein. […] A characteristic 47K band is readily detected in all anti-CD9 immunoprecipitates and protein band of 22K, similar in size to CD9/or CD81, is co-precipitated with anti-colligin/Hsp47. […]

[2] = molecular target: T2, colligin/Hsp47 on the surface of murine Lewis Lung Carcinoma (LL/2) cells (murine, UniProt P19324 18-417); test: cross-linking (DSP) and immunoprecipitation with anti-CD81 mAbs, LL/2 cells
T2 construct: whole, on cells; Endogenous protein of LL/2 cells
T2 sequence (looked up): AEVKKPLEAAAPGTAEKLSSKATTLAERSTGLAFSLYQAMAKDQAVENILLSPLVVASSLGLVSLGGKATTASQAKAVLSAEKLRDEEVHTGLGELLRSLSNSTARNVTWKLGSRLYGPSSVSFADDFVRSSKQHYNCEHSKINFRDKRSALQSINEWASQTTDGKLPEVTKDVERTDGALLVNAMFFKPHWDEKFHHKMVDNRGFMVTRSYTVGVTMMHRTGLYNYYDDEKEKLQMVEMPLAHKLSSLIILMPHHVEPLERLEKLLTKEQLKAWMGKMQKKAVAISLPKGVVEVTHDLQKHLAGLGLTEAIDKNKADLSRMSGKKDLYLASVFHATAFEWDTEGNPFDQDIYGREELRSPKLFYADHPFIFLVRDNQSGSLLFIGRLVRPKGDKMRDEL
Description: as §2, §1, §3

Molecule: N=C(N)NC(=O)c1nc(Cl)c(N)nc1N [amiloride]
- amount of colligin/Hsp47 recovered following immunoprecipitation (colligin/Hsp47): greatly enhances
- invasion index (SCC cells and LL/2 cells): dramatically decreases the invasion index

B1: CD81 on human SCC cells (other, UniProt P60033 1-236, looked up)
chain: MGVEGCTKCIKYLLFVFNFVFWLAGGVILGVALWLRHDPQTTNLLYLELGDKPAPNTFYVGIYILIAVGAVMMFVGFLGCYGAIQESQCLLGTFFTCLVILFACEVAAGIWGFVNKDQIAKDVKQFYDQALQQAVVDDDANNAKAVVKTFHETLDCCGSSTLTALTTSVLKNNLCPSGSNIISNLFKEDCHQKIDDLFSGKLYLIGIAAIVVAVIMIFEMILSMVLCCGIRNSSVY
notes: whole, on cells
- binding result [1]: no binding

B2: CD81 on murine LL/2 cells (other, UniProt P35762 1-236, looked up)
chain: MGVEGCTKCIKYLLFVFNFVFWLAGGVILGVALWLRHDPQTTSLLYLELGNKPAPNTFYVGIYILIAVGAVMMFVGFLGCYGAIQESQCLLGTFFTCLVILFACEVAAGIWGFVNKDQIAKDVKQFYDQALQQAVMDDDANNAKAVVKTFHETLNCCGSNALTTLTTTILRNSLCPSGGNILTPLLQQDCHQKIDELFSGKLYLIGIAAIVVAVIMIFEMILSMVLCCGIRNSSVY
notes: whole, on cells
- binding result [2]: no binding
